In patent publication US20210069108A1, “METHODS FOR PREVENTION AND TREATMENT OF PRESSURE ULCERS CAUSED BY ISCHEMIA USING CONTACT VASODILATORS” (priority 2018, published 2021):

System: pressure ulcer
Assay: topical composition applied to one pressure ulcer of a patient, another pressure ulcer left untreated
Format: in vivo
Details: patient diagnosed with pressure ulcers
Description: A patient is diagnosed with pressure ulcers. A topical composition comprising the calcium channel blocker nifedipine is applied to one pressure ulcer while another pressure ulcer is left untreated. […] A patient is diagnosed with pressure ulcers. A topical composition comprising the ACE inhibitor enalapril is applied to one pressure ulcer while another pressure ulcer is left untreated. […] A patient is diagnosed with pressure ulcers. A topical composition comprising the angiotensin receptor blocker losartan is applied to one pressure ulcer while another pressure ulcer is left untreated.

Row | SMILES | healing of the treated pressure ulcer compared with the untreated pressure ulcer
1 | CCOC(=O)[C@H](CCc1ccccc1)N[C@@H](C)C(=O)N1CCC[C@H]1C(=O)O [enalapril] | heal faster than the untreated pressure ulcer
2 | CCCCc1nc(Cl)c(CO)n1Cc1ccc(-c2ccccc2-c2nn[nH]n2)cc1 [losartan] | heal faster than the untreated pressure ulcer
